Assay results reported in patent US20040097566A1, “2-Substituted thiazolidinone and oxazolidinone derivatives for the inhibition of phosphatases and the treatment of cancer” (priority 2001, published 2004).
Entries after “also recorded” stand apart in the source; their conditions may differ.

Tests used:
[1] = system: non-small-cell lung cancer cell line A549; assay: MTT assay, human non-small-cell lung cancer cells; type: cell-based; details: concentrations in the range of 10^−7-10^−5 M or higher, FIGS. 3, 15
From the text: (§1) The anti-cancer activity of some of the compounds described herein have been tested in one type of such in vitro assay, as described in the examples herein, using a microculture assay with 3-(4,5-dimethylthiazol-2-yl)-2,5-diphenyltetrazolium bromide (“MTT”). This assay has an advantage over in vivo assay in that results are obtained within a week as opposed to several months. The assay can be carried out in 96-well microtiter plates. The MTT assay is based on the production of a dark blue formazan product by dehydrogenase in the mitochondria of live tumor cells after exposure to drug for 6 days [M. C. Alley, D. A. Scudiero, A. Monks, M. L. Hursey, M. J. Czerwinski, D. L. Fine, B. J. Abbout, J. G. Mayo, R. H. Shoemaker and M. R. Boyd, Cancer Res., 48, 589, 1988]. Thus, only live cells are stained and can be measured at 595 nm. Anti-cancer activity can be reported as percent of the tumor cell growth in the presence of compound at a defined dose compared to control/vehicle treated tumor cells. The results of some such screening assays are given in Examples 162a and 162b, and in FIGS. 2, 3, and 15-18.
(§2) The following human cancer cell lines were used to detect anti-cancer activity in the compounds of the invention.
The non-small-cell lung cancer cell line A549 was used to detect anti-lung cancer activity
(§3) Cell lines were purchased from American Type Culture Collection (ATCC).
(§4) The cancer cell cultures were grown as recommended by the ATTC manuals. A549 cells and BX-PC-3 were grown in DME Dulbecco's modified Eagle's medium containing 4500 mg/L glucose; 4 mM L-glutamine; 10 U/ml Pen-G; 10 mcg/ml […] and 10% fetal calf serum (FCS). PC-3 and MDA-MB468 cells were grown in RPMI medium 1640 containing 2 mM L-glutamine; 10 U/ml Pen-G; 10 mcg/ml Streptomycin and 10% FCS. Cells were kept at 6% CO2 and 37° C. Cells were seeded on day zero in 96-well format tissue culture plates at suitable densities the day before starting treatment, in the media indicated above.
(§5) On day one, the compounds of the invention were added to the culture media of growing cells, containing 10% FCS. The cell media contained the compounds of the invention at one of six concentrations: […], 5×10^−8, 1×10^−7, 5×10^−7, 1×10^−6, and 1×10^−5M. 0.1% DMSO was used as vehicle control, and never exceeded 0.1% final concentration. On day four the media was removed and replaced with fresh media containing the compounds of the invention and FCS.
(§6) The assay is based on the cleavage of the yellow tetrazolium salt MTT to purple formazan crystals by dehydrogenase activity in active mitochondria. This conversion only occurs in living cells with intact/functional mitochondria.
(§7) On day five 10 μl of 5 mg/ml MTT dye are added to each well containing a cell culture. Cells are incubated for additional 4 hours at 6% CO2 and 37° C. Reaction is then stopped by adding 100 μl/well of a solubilization solution consisting of 10% Sodium Dodecyl Sulfate (SDS) and 10 mM HCl On day 6 the formazan crystals formed are solubilized and the resulting colored solution is quantified using a scanning multiwell spectrophotometer at a wavelength of 595 nm.

[2] = system: breast cancer cell line MDA-MB468; assay: MTT assay, human breast cancer cells; type: cell-based; details: concentrations in the range of 10^−7-10^−5 M or higher, FIGS. 2, 17
From the text: as §1, §2
The breast cancer cell line MDA-MB468 served to detect anti-breast cancer activity.
as §3, §4, §5, §6, §7

[3] = system: pancreatic cancer cell line BX-PC-3; assay: MTT assay, human pancreatic cancer cells; type: cell-based; details: concentrations in the range of 10^−7-10^−5 M or higher, FIGS. 3, 18
From the text: as §1, §2
The pancreatic cancer cell line BX-PC-3 was used to detect anti-pancreatic cancer activity.
as §3, §4, §5, §6, §7

[4] = system: prostate cancer cell line PC-3; assay: MTT assay, human prostate cancer cells; type: cell-based; details: concentrations in the range of 10^−7-10^−5 M or higher, FIGS. 2, 16
From the text: as §1, §2
The prostate cancer cell line PC-3 was used to detect […]
as §3, §4, §5, §6, §7

tumor cells (PC3) = assay: Solid prostate cancer tumors in athymic nude mice, intraperitoneal treatment; type: in vivo; details: PC3 s.c. in athymic nude mice; i.p. every other day; compound 43 20mg/kg, compound 81 20mg/kg and 60mg/kg; FIGS. 20, 21
Method: (§8) Four to six week-old male athymic nude mice (Harlan) were housed under sterile conditions in a fixed 12-12-hr artificial light-dark cycle, and maintained on a standard rodent diet provided ad libitum. Animals were allowed two days to acclimate in this experimental environment prior to the initiation of the study.
(§9) Groups of animals were injected subcutaneously with tumor cells (H460 or PC3). Prior to the injection, the sterile tumor cells were at a logarithmic growth phase and were washed twice with PBS, counted and resuspended in sterile saline at 5-50 million cells per ml. As soon as solid tumors were discernible, the animals were sorted into treatment groups with equal average tumor volume. Animals were treated every other day intraperitoneally with a final volume of 5 ml/kg. Tumor volume was measured once a week for the duration of the study.
Experiment I: Treatment of solid prostate cancer tumors
Study 1—Treatment groups(n=6/group):

tumor cells (H460) = assay: Solid non-small-cell lung cancer tumors in athymic nude mice, intraperitoneal treatment; type: in vivo; details: H460 s.c. in athymic nude mice, i.p. every other day, compound 81 20mg/kg, FIG. 22
Method: as §8, §9
Experiment II: Treatment of solid non-small-cell lung cancer tumors

O=C1N=C(N2CCOCC2)S/C1=C\c1cccc(-c2cc(F)c(O)c(C34CC5CC(CC(C5)C3)C4)c2)c1 [Compound 1, 5-[3-(3-Adamantan-1-yl-4-hydroxy-5-fluoro-phenyl)benzylidene]-2-morpholin-4-yl-thiazol-4-one]
anticancer cell activity / killing of non-small-cell lung cancer cells [1]: kill significant percentages of the cells; also recorded: strong anticancer all activity
melting point: 293 to 295 °C
anticancer cell activity / killing of breast cancer cells [2]: kill significant percentages of the cells; also recorded: strong anticancer cell activity
anticancer cell activity / killing of pancreatic cancer cells [3]: kill significant percentages of the cells; also recorded: strong anticancer all activity
anticancer cell activity / killing of prostate cancer cells [4]: kill significant percentages of the cells; also recorded: strong anticancer cell activity

O=C1N=C(N2CCOCC2)SC1Cc1cccc(-c2cc(F)c(O)c(C34CC5CC(CC(C5)C3)C4)c2)c1 (stereo not drawn) [Compound 43, 5-[3-(3-Adamantan-1-yl-4-hydroxy-5-fluoro-phenyl)benzyl]-2-morpholin-4-yl-thiazol-4-one]
growth of solid human prostate cancer tumors (tumor cells (PC3)): significantly retarded the growth; also recorded: significantly slowed the growth
anticancer cell activity / killing of non-small-cell lung cancer cells [1]: kill significant percentages of the cells; also recorded: strong anticancer all activity
melting point: 227 to 229 °C
anticancer cell activity / killing of breast cancer cells [2]: kill significant percentages of the cells; also recorded: strong anticancer cell activity
anticancer cell activity / killing of pancreatic cancer cells [3]: kill significant percentages of the cells; also recorded: strong anticancer all activity
anticancer cell activity / killing of prostate cancer cells [4]: kill significant percentages of the cells; also recorded: strong anticancer cell activity

O=C1N=C(N2CCCC2)SC1Cc1cccc(-c2cc(F)c(O)c(C34CC5CC(CC(C5)C3)C4)c2)c1 (stereo not drawn) [Compound 81]
growth of non-small cell lung cancer tumors (tumor cells (H460)): significantly retarded the growth; also recorded: significantly slowed the growth
growth of solid human prostate cancer tumors (tumor cells (PC3)): significantly retarded the growth; also recorded: significantly slowed the growth
anticancer cell activity / killing of non-small-cell lung cancer cells [1]: kill significant percentages of the cells
melting point: 152 to 154 °C
anticancer cell activity / killing of breast cancer cells [2]: kill significant percentages of the cells
anticancer cell activity / killing of pancreatic cancer cells [3]: kill significant percentages of the cells
anticancer cell activity / killing of prostate cancer cells [4]: kill significant percentages of the cells

COc1cc(-c2ccc(O)c(C34CC5CC(CC(C5)C3)C4)c2)cc(/C=C2\SC(N3CCOCC3)=NC2=O)c1O [Compound 84, 5-[3-(3-Adamantan-1-yl-4-hydroxy-phenyl)-5-methoxy-6-hydroxy-benzylidene]-2-morpholin-4-yl-thiazol-4-one]
anticancer cell activity / killing of non-small-cell lung cancer cells [1]: kill significant percentages of the cells
melting point: 310 to 312 °C
anticancer cell activity / killing of breast cancer cells [2]: kill significant percentages of the cells
anticancer cell activity / killing of pancreatic cancer cells [3]: kill significant percentages of the cells
anticancer cell activity / killing of prostate cancer cells [4]: kill significant percentages of the cells

O=C1N=C(N2CCOCC2)S/C1=C\c1cc(-c2ccc(O)c(C34CC5CC(CC(C5)C3)C4)c2)c(O)cc1O [Compound 104, 5-[3-(3-Adamantan-1-yl-4-hydroxy-phenyl)-4,6-dihydroxy-benzylidene]-2-morpholin-4yl-thiazol-4-one]
melting point: 306 to 310 °C

O=C1N=C(N2CCC2)S/C1=C\c1cccc(-c2cc(F)c(O)c(C34CC5CC(CC(C5)C3)C4)c2)c1 [Compound 108]
melting point: 154 to 157 °C

O=C1N=C(N2CCOCC2)SC1Cc1cccc(-c2ccc(O)c(C34CC5CC(CC(C5)C3)C4)c2)c1 (stereo not drawn) [Compound 135, 5-(3′-Adamantan-1-yl-4′-hydroxy-biphenyl-3-ylmethyl)-2-morpholin-4-yl-thiazol-4-one]
anticancer cell activity / killing of non-small-cell lung cancer cells [1]: kill significant percentages of the cells
anticancer cell activity / killing of breast cancer cells [2]: kill significant percentages of the cells
anticancer cell activity / killing of pancreatic cancer cells [3]: kill significant percentages of the cells
anticancer cell activity / killing of prostate cancer cells [4]: kill significant percentages of the cells

CCC(C)(C)c1cc(-c2cccc(CC3SC(N4CCOCC4)=NC3=O)c2)ccc1O (stereo not drawn) [Compound 151, 5-[3′-(1,1-Dimethyl-propyl)-4′-hydroxy-biphenyl-3-ylmethyl]-2-morpholin-4-yl-thiazol-4-one]
anticancer cell activity / killing of non-small-cell lung cancer cells [1]: kill significant percentages of the cells
melting point: 74 to 77 °C
anticancer cell activity / killing of breast cancer cells [2]: kill significant percentages of the cells
anticancer cell activity / killing of pancreatic cancer cells [3]: kill significant percentages of the cells
anticancer cell activity / killing of prostate cancer cells [4]: kill significant percentages of the cells

CCC(C)(C)c1cc(-c2ccc(F)c(/C=C3\SC(N4CCOCC4)=NC3=O)c2)ccc1O [Compound 152, 5-[3′-(1,1-Dimethyl-propyl)-4-fluoro-4′-hydroxy-biphenyl-3-ylmethylene]-2-morpholin-4-yl-thiazol-4one]
anticancer cell activity / killing of non-small-cell lung cancer cells [1]: kill significant percentages of the cells
anticancer cell activity / killing of breast cancer cells [2]: kill significant percentages of the cells
anticancer cell activity / killing of pancreatic cancer cells [3]: kill significant percentages of the cells
anticancer cell activity / killing of prostate cancer cells [4]: kill significant percentages of the cells

CCC(C)(C)c1cc(-c2cccc(CC3SC(N4CCOCC4)=NC3=O)n2)ccc1O (stereo not drawn) [Compound 155, 5-{6-[3-(1,1-Dimethyl-propyl)-4-hydroxy-phenyl]-pyridin-2ylmethyl}--2-morpholin-4-yl-thiazol-4-one]
anticancer cell activity / killing of non-small-cell lung cancer cells [1]: kill significant percentages of the cells
anticancer cell activity / killing of breast cancer cells [2]: kill significant percentages of the cells
anticancer cell activity / killing of pancreatic cancer cells [3]: kill significant percentages of the cells
anticancer cell activity / killing of prostate cancer cells [4]: kill significant percentages of the cells
